Read-outs that look alike come from different tables or passages of the source.
Experiments:
[1] = Plasma levels of Example 6 at Cmax after s.c. dosing of Example 7 in the radio-sensitization studies; format: in vivo, nude mice; conditions: athymic NCR NUM nude, mouse, sc
[2] = molecular target: recombinant human PARP (Homo sapiens, UniProt P09874); assay: Measurement of PARP enzymatic activity ([32P]NAD+ transfer to protein acceptor); format: biochemical; conditions: 100 μM NAD+
Experimental: PARP activity was monitored by transfer of radiolabeled ADP-ribose units from [^32P]NAD^+ to a protein acceptor such as histone or PARP itself. The assay mixtures contained 100 mM Tris (pH 8.0), 2 mM DTT, 10 mM MgCl2, 20 ug/ml DNA (nicked by sonication), […] histone H1, 5 ng recombinant human PARP, and inhibitor or DMSO (<2.5% (v/v)) in a final volume of 100 uL. The reactions were initiated by the addition of 100 μM NAD^+ supplemented with 2 uCi [^32P]NAD^+/mL and maintained at room temperature for 12 minutes. Assays were terminated by the addition of […] and the radiolabeled precipitate was collected on a 96-well filter plate (Millipore, MADP NOB 50), washed with 25% TCA. The amount of acid-insoluble radioactivity, corresponding to polyADP-ribosylated protein, was quantitated in a Wallac MicroBeta scintillation counter.
Single-point inhibition data were calculated by comparing PARP, VEGFR2, or MLK3 activity in the presence of inhibitor to activity in the presence of DMSO only. Inhibition curves for compounds were generated by plotting percent inhibition versus log10 of the concentration of compound. IC50 values were calculated by nonlinear regression using the sigmoidal dose-response (variable slope) equation in GraphPad Prism as follows:
y=bottom+(top−bottom)/(1+10^(log IC^50^−x)*Hillslope)
where y is the % activity at a given concentration of compound, x is the logarithm of the concentration of compound, bottom is the % inhibition at the lowest compound concentration tested, and top is the % inhibition at the highest compound concentration examined. The values for bottom and top were fixed at 0 and 100, respectively. IC50 values are reported as the average of at least three separate determinations.
Where no IC50 value is represented, data has yet to be determined.

[3] = tested on: U87MG human glioblastoma xenografts; format: in vivo
[4] = tested on: U87MG human glioblastoma xenografts; assay: Initial radio-sensitizing study, non-optimized dosing schedule (7.5 Gy x 3 days, s.c.); format: in vivo, nude mice
[5] = tested on: bone marrow and intestinal mucosa; assay: Bone marrow and jejunal crypt assays for radiation-induced normal tissue toxicity; format: in vivo; conditions: Example 7 30 and 100 mg/kg dose equivalents of Example 6 sc plus 2 Gy radiation x 5 days
Experimental: To evaluate therapeutic gain, Example 7 (30 and 100 mg/kg dose equivalents of Example 6 sc) plus 2 Gy radiation×5 days was evaluated in bone marrow and jejunal crypt assays to determine if Example 7 potentiated radiation-induced normal tissue (NT) toxicity.

[6] = tested on: U87MG human glioblastoma xenografts; assay: Preliminary radio-sensitizing study of orally administered Example 7; format: in vivo, nude mice
[7] = Example 7 30 mg/kg s.c. qd x 21 d plus RT 2 Gy x 5 days

Sequence of recombinant human PARP (P09874 whole entry): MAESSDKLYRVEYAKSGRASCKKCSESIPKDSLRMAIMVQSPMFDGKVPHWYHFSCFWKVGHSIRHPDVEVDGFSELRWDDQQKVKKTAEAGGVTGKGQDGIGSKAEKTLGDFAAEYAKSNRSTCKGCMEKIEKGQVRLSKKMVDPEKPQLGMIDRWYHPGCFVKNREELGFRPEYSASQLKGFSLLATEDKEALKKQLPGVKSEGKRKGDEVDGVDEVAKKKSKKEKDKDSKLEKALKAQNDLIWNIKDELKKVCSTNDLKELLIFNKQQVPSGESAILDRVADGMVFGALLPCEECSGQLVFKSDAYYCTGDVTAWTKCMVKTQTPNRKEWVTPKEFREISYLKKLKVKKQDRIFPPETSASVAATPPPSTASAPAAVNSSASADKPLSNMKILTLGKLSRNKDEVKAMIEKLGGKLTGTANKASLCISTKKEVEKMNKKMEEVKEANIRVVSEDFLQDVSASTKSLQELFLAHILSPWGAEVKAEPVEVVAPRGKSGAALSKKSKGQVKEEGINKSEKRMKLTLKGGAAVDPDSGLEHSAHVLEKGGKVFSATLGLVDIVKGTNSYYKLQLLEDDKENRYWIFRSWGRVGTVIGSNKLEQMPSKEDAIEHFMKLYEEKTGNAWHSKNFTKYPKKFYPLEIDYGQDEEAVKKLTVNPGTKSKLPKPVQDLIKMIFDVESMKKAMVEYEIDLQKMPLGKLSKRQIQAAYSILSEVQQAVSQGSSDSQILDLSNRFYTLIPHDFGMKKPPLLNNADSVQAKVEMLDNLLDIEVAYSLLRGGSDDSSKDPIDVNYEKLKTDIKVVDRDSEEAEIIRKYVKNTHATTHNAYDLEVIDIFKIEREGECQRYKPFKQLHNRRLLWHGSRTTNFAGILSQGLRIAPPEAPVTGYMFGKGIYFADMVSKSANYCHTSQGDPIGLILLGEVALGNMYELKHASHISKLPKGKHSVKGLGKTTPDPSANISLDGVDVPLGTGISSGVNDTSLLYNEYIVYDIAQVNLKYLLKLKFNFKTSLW

COc1cccc2[nH]c3c4c(c5c(c3c12)C(=O)NC5=O)CCC4 [Example 6, 7-Methoxy-1,2,3,11-tetrahydro-5,11-diaza-benzo[a]trindene-4,6-dione]
Cmax ([1]; 30 mg/kg, Example 7 30 mg/kg s.c., fractionated RT study, read-out: Plasma levels of Example 6 at Cmax associated with radio-sensitization efficacy): 5.5 µM
Cmax ([1]; 100 mg/kg, Example 7 100 mg/kg s.c. dose, fractionated RT study, read-out: Plasma levels at Cmax): 21 µM
Cmax ([1]; 100 mg/kg, at 100 mg/kg Example 7 s.c., initial study (7.5 Gy schedule), read-out: Plasma levels of Example 6 at Cmax associated with efficacy): 23 µM
IC50 [2]: < 100 nM

COc1cccc2[nH]c3c4c(c5c(c3c12)C(=O)N(CN1CCN(C)CC1)C5=O)CCC4 [Example 7, 7-Methoxy-5-(4-methyl-piperazin-1-ylmethyl)-1,2,3,11-tetrahydro-5,11-diaza-benzo[a]trindene-4,6-dione]
TGD compared to radiation alone ([3]; Example 7 30 mg/kg s.c. qd x 21 d in combination with RT 2 Gy x 5 days): 15 days
TGD compared to Example 7 alone [3, 7]: 26 days
fold increase in TGD compared to Example 7 alone [3, 7]: 6 fold
fold increase in TGD compared to radiation alone [3, 7]: 4 fold
anti-tumor efficacy ([3]; Example 7 100 mg/kg s.c. with fractionated radiotherapy 2 Gy x 5 days): significant anti-tumor efficacy
mortality ([3]; Example 7 100 mg/kg s.c. with fractionated radiotherapy, by day 11): 80%
effect on tumor growth inhibition, Example 7 alone ([3]; Example 7 alone, 30 mg/kg dose equivalents of Example 6 s.c. qd x 21 days): no effect on tumor growth inhibition
tumor growth delay (TGD) ([4]; Example 7 (100 mg/kg s.c. qd) with 7.5 Gy radiation for 3 days, vs vehicle): 14.8 days
time for tumors to reach 2000 mm3 ([4]; Example 7 (100 mg/kg s.c. qd) with 7.5 Gy radiation for 3 days, radiation alone 16.1 days): 24.8 days
effect on tumor growth as a single agent ([4]; Example 7 alone, 100 mg/kg dose equivalents of Example 6, s.c., QD for 5 days): no effect on tumor growth
time for tumors to reach a tumor volume of 2000 mm3 ([4]; Example 7 only, 100 mg/kg dose equivalents of Example 6, s.c., QD 5 days, vehicle 10.0 days): 9.6 days
potentiation of radiation-induced normal tissue toxicity [5]: did not potentiate radiation toxicity
effect on tumor growth ([6]; Example 7 200 mg/kg dose equivalents of Example 6 p.o. qd x 21 d plus RT 2 Gy x 5 d): no effect on tumor growth as compared to RT alone
effect on tumor growth ([6]; Example 7 300 mg/kg dose equivalents of Example 6 p.o. qd x 21 d plus RT 2 Gy x 5 d): tumor growth stasis starting on day 8 and continuing throughout the study (day 31)
effect on tumor growth ([6]; Example 7 alone, 200 and 300 mg/kg dose equivalents of Example 6 p.o. qd x 21 d): no effect on tumor growth as compared to RT alone
radio-sensitizing effect when administered orally ([6]; oral administration): exerts radio-sensitizing effects when administered orally
IC50 [2]: < 100 nM

COc1cccc2c1c1c3c(c4c(c1n2CN1CCOCC1)CCC4)C(=O)N(CN1CCOCC1)C3=O [Example 9, 7-Methoxy-5,11-(bis-morpholin-4-ylmethyl)-1,2,3,11-tetrahydro-5,11-diaza-benzo[a]trindene-4,6-dione]
IC50 [2]: < 100 nM

COc1cccc2[nH]c3c4c(c5c(c3c12)C(=O)N(CN1CCOCC1)C5=O)CCC4 [Example 10, 7-Methoxy-5-(morpholin-4-ylmethyl)-1,2,3,11-tetrahydro-5,11-diaza-benzo[a]trindene-4,6-dione]
IC50 [2]: < 100 nM
